Measurements published in publication PMC10093841 (International Journal of Molecular Sciences, 2023).
“Also recorded” adds a separate entry of the source. Like-named read-outs stand apart in the source and are kept apart here.

Legend:
[1] = Hydrogen peroxide scavenging assay (1,10-phenanthroline); conditions: cell-free, concentration range 0–1000 μg/mL
Method: Briefly, 0.25 mL of ferrous ammonium sulfate (1 mM) solution was mixed with 1.5 mL of different concentrations (from 6 to 500 μg/mL) of carvacrol, p-cymene; acid gallic was used as a positive control. Then, 62.5 µL of H2O2 (5 mM) was added and the mixture was incubated at room temperature in the dark for 5 min. Then, 1.5 mL of 1,10-phenanthroline (1 mM) was added to each tube, mixed, and incubated for 10 min at room temperature. Finally, the absorbance was measured at 510 nm through a spectrophotometer (Thermo Scientific Multiskan GO, Monza, Italy).

[2] = target: T1, porcine pancreatic amylase (Sus scrofa, UniProt P00690); test: biochemical
T1 construct: purchased Sigma-Aldrich
Method: (§1) Anti-GAPDH antibody and enhanced chemiluminescence reagents were purchased from Santa Cruz Biotechnology (Santa Cruz, CA, USA); horseradish peroxidase-conjugated secondary antibody was purchased from Amersham Biosciences (Pittsburgh, PA, USA). Nitrocellulose was purchased from Biorad (Hercules, CA, USA).
(§2) The percent inhibition of enzyme activity for acetylcholinesterase, butyrylcholinesterase, and α-amylase was calculated by comparison with the absorbance of the control without sample, following the formula: % = [(A0 − A1)/A0] × 100(1) where A0 is the absorbance of the control without the sample and A1 is the absorbance of the sample.

[3] = target: T2, acetylcholinesterase (AChE) type VI-S from Electrophorus electricus (Electrophorus electricus, UniProt O42275); test: Cholinesterase inhibition, Ellman's colorimetric method (AChE); type: biochemical
T2 construct: purchased Sigma-Aldrich
Method: as §1
(§3) The cholinesterase inhibition was evaluated by Ellman’s colorimetric method with some modifications. Briefly, in a total volume of 1 mL, 415 µL of Tris-HCl buffer 0.1 M (pH 8), 10 µL of a buffer solution of carvacrol or p-cymene (in methanol) at different concentrations (100, 10, 1 and 0.1 µg/mL), and 25 µL of a solution containing 0.28 U/mL of AChE (or BChE) were incubated for 15 min at 37 °C. […] The absorbance was measured at 405 nm in a spectrophotometer (Thermo Scientific Multiskan GO, Monza, Italy).
as §2

[4] = target: T3, butyrylcholinesterase (BChE) from equine serum (Equus caballus, UniProt P81908); test: biochemical
T3 construct: purchased Sigma-Aldrich; host or cells: equine serum
Method: as §1, §3, §2

AChE = conditions: carvacrol stronger than its isomer thymol; cited from earlier work
[5] = system: caspase-3 in SH-SY5Y cells; test: Caspase-3 expression (Western blot) in H2O2-induced stress; type: cell-based, Human; conditions: pretreatment 50 μg/mL for 22 h, then H2O2 100 or 200 μM for 2 h
Method: To investigate the neuroprotective effects of carvacrol and p-cymene on H2O2-induced stress in SH-SY5Y cells, the cells were assigned to a total of nine groups: Group 1: control (untreated cells); Groups 2 and 3, cells treated with H2O2 alone, at 100 and 200 μM for two h; Groups 4–5: cells treated with carvacrol or p-cymene MNTD (50 µg/mL) Groups 6–9: cells pretreated with carvacrol or p-cymene MNTD for 22 h and then exposed to H2O2 at 100 and 200 μM for another two h. After the cell lysis, we determined the caspase-3 activity. For caspase-3 activity analysis, the SH-SY5Y cells (1 × 10^4) were seeded in separate wells in 12-well plates (Corning, Inc., Corning, NY, USA). The cells were allowed to reach 70–80% confluency before the treatment groups were initiated. The cells were collected after 24 h and lysed using the Laemmli buffer to extract total proteins. For Western blot analysis, an aliquot of total protein was run on 10% SDS-PAGE gel and transferred to nitrocellulose. […] Immunoreactivity was detected through a sequential incubation with horseradish peroxidase-conjugated secondary antibody and enhanced chemiluminescence reagents. Each band density was measured using ImageJ software (WS Rasband, Image J, NIH, Bethesda, MD, USA).

BChE = system: BChE; set-up: method as in doi:10.1007/s10068-015-0093-0; conditions: at a concentration of 2 mg/mL; cited from earlier work

T3 sequence (P81908 whole entry): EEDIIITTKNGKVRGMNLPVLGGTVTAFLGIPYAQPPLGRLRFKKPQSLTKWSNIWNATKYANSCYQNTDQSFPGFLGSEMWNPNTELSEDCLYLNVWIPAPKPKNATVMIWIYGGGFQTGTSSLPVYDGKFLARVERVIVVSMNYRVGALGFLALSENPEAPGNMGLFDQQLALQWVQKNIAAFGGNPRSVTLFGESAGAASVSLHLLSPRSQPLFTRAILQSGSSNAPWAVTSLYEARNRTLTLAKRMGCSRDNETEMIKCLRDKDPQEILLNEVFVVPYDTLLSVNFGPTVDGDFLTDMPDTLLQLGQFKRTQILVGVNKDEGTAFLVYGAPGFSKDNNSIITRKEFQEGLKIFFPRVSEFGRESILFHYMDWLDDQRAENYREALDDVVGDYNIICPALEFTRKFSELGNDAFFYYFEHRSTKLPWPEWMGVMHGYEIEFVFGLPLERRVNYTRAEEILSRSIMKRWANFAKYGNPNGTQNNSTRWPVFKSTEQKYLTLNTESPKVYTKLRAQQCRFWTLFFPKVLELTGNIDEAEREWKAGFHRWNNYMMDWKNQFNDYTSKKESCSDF
T2 sequence (O42275 24-633): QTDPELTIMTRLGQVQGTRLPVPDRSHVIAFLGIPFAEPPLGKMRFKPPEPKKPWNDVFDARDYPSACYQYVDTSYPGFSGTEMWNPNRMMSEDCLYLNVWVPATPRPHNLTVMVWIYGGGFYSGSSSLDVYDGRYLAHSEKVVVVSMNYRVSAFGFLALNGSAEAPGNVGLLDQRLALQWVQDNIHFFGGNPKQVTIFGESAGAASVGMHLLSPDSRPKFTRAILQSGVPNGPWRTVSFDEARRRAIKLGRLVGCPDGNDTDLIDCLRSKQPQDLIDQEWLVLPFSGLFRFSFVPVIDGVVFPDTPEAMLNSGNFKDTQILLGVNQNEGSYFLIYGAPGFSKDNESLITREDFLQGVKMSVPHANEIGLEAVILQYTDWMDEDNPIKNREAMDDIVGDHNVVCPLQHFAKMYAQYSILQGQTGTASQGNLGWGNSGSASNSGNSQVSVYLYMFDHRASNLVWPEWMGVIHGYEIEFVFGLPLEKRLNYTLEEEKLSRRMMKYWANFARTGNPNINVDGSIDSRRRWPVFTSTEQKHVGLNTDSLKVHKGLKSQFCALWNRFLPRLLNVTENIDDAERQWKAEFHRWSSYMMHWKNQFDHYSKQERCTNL
T1 sequence (P00690 16-511): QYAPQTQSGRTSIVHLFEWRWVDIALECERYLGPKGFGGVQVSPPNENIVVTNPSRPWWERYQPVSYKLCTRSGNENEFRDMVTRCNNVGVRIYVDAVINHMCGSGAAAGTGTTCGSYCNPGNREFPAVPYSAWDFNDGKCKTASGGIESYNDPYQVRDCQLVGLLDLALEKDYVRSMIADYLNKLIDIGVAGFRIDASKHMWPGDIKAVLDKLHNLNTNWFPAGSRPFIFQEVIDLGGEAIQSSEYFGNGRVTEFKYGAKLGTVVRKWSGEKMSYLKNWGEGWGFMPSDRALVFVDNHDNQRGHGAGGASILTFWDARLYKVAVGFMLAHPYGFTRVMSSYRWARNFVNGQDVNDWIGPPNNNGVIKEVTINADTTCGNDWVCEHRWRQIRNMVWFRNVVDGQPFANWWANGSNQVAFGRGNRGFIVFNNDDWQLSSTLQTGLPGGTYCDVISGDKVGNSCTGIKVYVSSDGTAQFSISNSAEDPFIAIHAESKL

Cc1ccc(C(C)C)cc1O [Carvacrol]
H2O2 scavenging activity [1]: more active than p-cymene | IC50 ([2]; read-out: IC50 α-Amylase (converted)): 1140 µM | IC50 [3]: 25.3 µM | IC50 ([4]; concentration required to reduce the enzymatic activity by 50%, read-out: IC50 BChE (converted)): 218 µM | inhibitory effect relative to thymol (AChE): 10 times | caspase-3 expression [5]: reduced; also recorded: caspase-3 was inhibited

Cc1ccc(C(C)C)c(O)c1 [Thymol]
inhibition of BChE activity (BChE): 42.2%

Cc1ccc(C(C)C)cc1 [p-Cymene]
IC50 [2]: 1600 µM | IC50 [3]: 113 µM | IC50 [4]: 10800 µM
